According to patent US20240262804A1, “NITROGEN-CONTAINING HETEROCYCLIC KETONES, PREPARATION METHODS AND MEDICINAL USES THEREOF” (Hansoh Bio LLC, priority 2021, published 2024):
Marks after values point to notes of the source that are not given here. One block for each compound: values may come before it.

Experiments:
[1] = system: isolated rat ventricular myocytes; test: Cardiomyocyte contractility assay (sarcomere shortening, IonOptix); type: cell-based; conditions: for Ratio of % FS 5 uM/15 uM: 5 uM versus 15 uM
Procedure: The effects of compounds on sarcomere shortening in isolated rat ventricular myocytes were assessed using the IonOptix apparatus.
Myocytes were placed in a chamber mounted on the stage of an inverted microscope and continuously superfused with oxygenated Tyrode solution containing (in millimolar): 121 NaCl, 5 KCl, 2.8 NaCH3CO2, MgCl2·6H2O, Glucose, NaHCO3, Na2HPO4. 7H2O, and 1.5 mM CaCl2). Solution was preheated at 36±1° C. and electrical-field stimulated at 1 Hz by 2 platinum electrodes connected to a Myopacer field stimulator (IonOptix Corporation) with 4 ms square-wave bipolar pulses (10 V). Cells were illuminated by the microscope light. The cell image was collected by a x40 ultraviolet epifluorescence objective, diverted to the microscope side port, where the cell image was recorded by a charge coupled device (CCD) camera (MyoCam, IonOptix Corporation), converting optical brightness (pixels) into electrical signals (voltage). The MyoCam configuration allowed acquisition of up to 240 images per second (240 Hz frame rate). Contractile properties of the myocytes were analyzed in real time by a video detector and a personal computer-based data acquisition system (Ionwizard 6.0, IonOptix Corporation). Only myocytes with clear striations, quiescent prior to pacing with a resting sarcomere length greater or equal to 1.75 μm were used, since this is presumed to represent the lower limit for healthy cells.
Sarcomere shortening was monitored in control solution (predrug) until stable recordings were obtained (baseline period). To determine the response to compounds, myocytes were first superfused for 60 seconds with Tyrode's buffer followed by at least a 5 minute—(or until steady state was reached, up to 10 min) superfusion of compound. Each cell was subjected to 2 concentrations (5 and 15 uM or 5 and 10 uM) of test compounds. For some cells, a washout period was performed after the last concentration. Duration of the washout period was variable, resulting in variability in the washout data. In separate cells, a single concentration of isoproterenol (100 nM) was applied. Data were continuously recorded using the IonOptix software. Contractility data were analyzed using Ionwizard software (IonOptix). For each cell, 10-15 contractility transients at baseline and after treatment were averaged and compared.

[2] = biological target: bovine skinned cardiac myofibrils (myosin) (Bos taurus (Bovine), UniProt Q9BE39); test: Myosin inhibitory potency comparison: ATPase assay, cardiac myofibrils; type: biochemical; conditions: pCa=6.25
Procedure: (§1) In our experiments, bovine skinned cardiac myofibrils were isolated from the frozen bovine left ventricle as myosin's source in the ATPase assay. The calcium concentration that achieves a 50% (pCa50 or pCa=6.25) activation of the myofibril system was chosen as the final condition for assessing the activation activity according to the literature (DOI: 10.1074/jbc.M117.776815). Myofibrils ATPase activity was measured in a buffered solution containing 12 mM PIPES (piperazine-N, N′-bis(2-ethane sulfonic acid) and 2 mM magnesium chloride at pH 6.8 (PM12 buffer). Final assay conditions were 1 mg/mL of bovine cardiac myofibrils, 1:20 of stock PK/LDH (Sigma-Aldrich, Cat No. P0294-5X5ML), 50 μM ATP, 1 mM DTT (dithiothreitol), 0.75 mM NADH, 1.5 mM PEP at pCa50 (pCa=6.25). Compounds were dissolved in DMSO (dimethyl sulfoxide). Serial dilution of compounds was created such that the final desired concentration of compound would be achieved in a volume of 150 μL with a fixed DMSO concentration of 2% (v/v). 75 μL of a solution containing bovine cardiac myofibrils, PK/LDH, and calcium were added to a 96 well plate for a 7 point dose-response. In some circumstances, 10 point-response was used to repeat the ATPase assays on compounds of interest. Compounds were added to the myofibrils solution and incubated for 5 minutes. The enzymatic reaction was started with the addition of 75 μL of a solution containing ATP, PEP, NADH, compounds, and calcium. The ATPase activity was measured by reading absorbance at 340 nm in a PerkinElmer Victor Nivo plate reader at 25° C. in kinetic mode for 15 minutes using clear bottom plates. The slopes of the absorbance changes as a function of time for the first 10 minutes were normalized to slopes on the control wells containing all reagents, including DMSO, but without compounds. This normalized rate was then plotted as a function of small molecule concentration in GraphPad prism 9. The data were fitted to a four-parameter fit, and IC50 was calculated using Graphpad Prism 9.
(§2) Bovine skinned cardiac myofibrils were isolated from the frozen bovine left ventricle, and rabbit skinned skeletal myofibrils were isolated from the frozen rabbit Psoas major and minor muscles as myosin's source in the ATPase assay. The calcium concentration that achieves a 50% activation of the myofibril system (pCa=6.25 for bovine cardiac myofibrils and pCa=6 for rabbit skeletal myofibrils) was chosen as the final condition for assessing the activation activity according to the literature (DOI:10.1074/jbc.M117.776815). Rest of ATPase assay conditions are the same as illustrated in experiment 1.

[3] = Pharmacokinetic profiles in male SD rats (IV and PO); type: in vivo, rat; conditions: IV 1 mg/kg, PO 5 mg/kg, route for this parameter not given; for clearance / half-life / Vd: rat, plasma; for Vd: read-out: VSS
Procedure: Pharmacokinetic profile of compounds were determined by IV (1 mg/Kg) and PO (5 mg/Kg) administrations in male SD rats. Compounds were administrated with free base and formulated in 5% DMAC+25% PEG-400+70%(30% 2-HP-β-CD in water). The compounds were dosed at 1 mg/kg for intravenous and 5 mg/kg oral administration. Blood samples were collected at 0, 0.083, 0.25, 0.5, 1, 2, 4, 8 and 24 hours post dose, serial bleeding for plasma for the IV group. Blood samples were collected at 0, 0.25, 0.5, 1, 2, 4, 6, 8 and 24 hours post dose, serial bleeding for the PO group. Approximately 150 μL whole blood/time point were collected in K2EDTA tube via jugular vein. Blood sample was put on ice and centrifuged at 2000 g for 5 min to obtain plasma sample within 15 minutes. PK parameters were estimated by non-compartmental model using WinNonlin 8.2.

[4] = system: rabbit skinned skeletal myofibrils (myosin); test: Myosin inhibitory potency comparison: ATPase assay, skeletal myofibrils; type: biochemical; conditions: ratio of skeletal IC50 to cardiac IC50
Procedure: as §1, §2

bovine cardiac myosin = bovine cardiac myosin (Bos taurus (Bovine), UniProt Q9BE39); test: Myosin inhibitory potency: PK/LDH-coupled ATPase assay on bovine skinned cardiac myofibrils; type: biochemical; conditions: pCa=6.25, 50 μM ATP, 25° C., read-out: myosin inhibition activity IC50
Method in brief: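 Bovine left-ventricle skinned myofibrils (1 mg/mL) in PM12 buffer pH 6.8 at pCa 6.25, 50 μM ATP, PK/LDH-coupled NADH depletion read at 340 nm, 25 °C.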

[5] = rat ventricular myocytes, paced at 1 Hz

Sequence of bovine cardiac myosin (Q9BE39 whole entry): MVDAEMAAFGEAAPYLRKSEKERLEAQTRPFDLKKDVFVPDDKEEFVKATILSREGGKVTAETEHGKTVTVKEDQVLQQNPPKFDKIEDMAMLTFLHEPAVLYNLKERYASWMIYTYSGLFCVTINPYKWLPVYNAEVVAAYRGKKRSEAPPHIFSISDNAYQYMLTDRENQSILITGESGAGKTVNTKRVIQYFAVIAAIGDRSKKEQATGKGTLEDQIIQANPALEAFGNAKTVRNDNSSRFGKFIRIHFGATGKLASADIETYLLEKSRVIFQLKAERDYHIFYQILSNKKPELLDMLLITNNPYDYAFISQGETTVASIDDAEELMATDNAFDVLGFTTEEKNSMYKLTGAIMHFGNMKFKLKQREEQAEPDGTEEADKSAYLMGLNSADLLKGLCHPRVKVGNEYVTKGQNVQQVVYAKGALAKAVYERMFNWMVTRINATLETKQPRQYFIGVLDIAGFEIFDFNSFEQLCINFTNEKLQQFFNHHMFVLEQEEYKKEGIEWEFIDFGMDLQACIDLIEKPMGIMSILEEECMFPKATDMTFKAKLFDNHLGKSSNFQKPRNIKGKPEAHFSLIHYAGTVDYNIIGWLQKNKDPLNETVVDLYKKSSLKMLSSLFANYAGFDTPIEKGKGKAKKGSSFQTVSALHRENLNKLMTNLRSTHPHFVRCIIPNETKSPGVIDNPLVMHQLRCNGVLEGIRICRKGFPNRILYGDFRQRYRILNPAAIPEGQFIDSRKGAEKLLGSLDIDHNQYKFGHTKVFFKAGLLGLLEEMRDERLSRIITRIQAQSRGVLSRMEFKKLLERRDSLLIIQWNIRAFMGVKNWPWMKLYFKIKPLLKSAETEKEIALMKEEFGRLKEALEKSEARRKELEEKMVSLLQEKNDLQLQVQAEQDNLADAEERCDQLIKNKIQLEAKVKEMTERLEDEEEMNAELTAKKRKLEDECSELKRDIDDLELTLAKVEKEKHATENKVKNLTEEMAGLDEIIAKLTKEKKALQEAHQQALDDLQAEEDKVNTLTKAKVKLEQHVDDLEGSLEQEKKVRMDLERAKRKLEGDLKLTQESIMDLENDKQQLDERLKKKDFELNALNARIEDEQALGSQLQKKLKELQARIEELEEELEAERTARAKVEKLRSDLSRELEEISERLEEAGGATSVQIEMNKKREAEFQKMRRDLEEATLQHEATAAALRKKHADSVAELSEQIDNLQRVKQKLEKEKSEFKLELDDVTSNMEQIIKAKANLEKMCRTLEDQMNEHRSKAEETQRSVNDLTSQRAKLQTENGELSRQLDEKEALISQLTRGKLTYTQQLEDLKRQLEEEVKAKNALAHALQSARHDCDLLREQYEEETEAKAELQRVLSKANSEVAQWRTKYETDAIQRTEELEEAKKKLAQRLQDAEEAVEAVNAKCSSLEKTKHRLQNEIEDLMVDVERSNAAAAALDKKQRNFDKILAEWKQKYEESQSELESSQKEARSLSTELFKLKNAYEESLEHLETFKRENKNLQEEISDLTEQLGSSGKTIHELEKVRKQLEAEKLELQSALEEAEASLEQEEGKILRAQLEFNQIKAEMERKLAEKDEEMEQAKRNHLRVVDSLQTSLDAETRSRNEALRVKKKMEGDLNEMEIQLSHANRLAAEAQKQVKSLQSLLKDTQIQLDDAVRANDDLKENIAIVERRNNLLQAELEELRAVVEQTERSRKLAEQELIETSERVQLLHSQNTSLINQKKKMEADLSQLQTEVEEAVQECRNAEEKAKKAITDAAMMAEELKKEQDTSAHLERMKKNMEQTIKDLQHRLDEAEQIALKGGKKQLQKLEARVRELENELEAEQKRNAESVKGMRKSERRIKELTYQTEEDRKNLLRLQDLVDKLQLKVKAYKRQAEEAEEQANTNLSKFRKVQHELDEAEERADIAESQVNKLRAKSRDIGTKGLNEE
Sequence of bovine cardiac myosin (P85100 whole entry partner): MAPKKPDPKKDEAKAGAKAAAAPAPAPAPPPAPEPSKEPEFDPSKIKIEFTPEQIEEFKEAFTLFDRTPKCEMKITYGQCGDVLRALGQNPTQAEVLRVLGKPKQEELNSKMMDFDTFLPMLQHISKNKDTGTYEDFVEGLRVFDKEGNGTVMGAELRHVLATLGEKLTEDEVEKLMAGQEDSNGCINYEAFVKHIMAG
Sequence of bovine cardiac myosin (Q3SZE5 whole entry partner): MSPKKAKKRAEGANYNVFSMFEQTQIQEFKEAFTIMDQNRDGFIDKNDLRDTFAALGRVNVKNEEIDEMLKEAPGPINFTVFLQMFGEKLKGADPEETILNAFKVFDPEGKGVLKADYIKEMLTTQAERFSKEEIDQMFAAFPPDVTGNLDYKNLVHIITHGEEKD
Sequence of bovine skinned cardiac myofibrils (myosin) (Q9BE39 whole entry): as the sequence (Q9BE39 whole entry) above
Sequence of bovine skinned cardiac myofibrils (myosin) (P85100 whole entry partner): as the sequence (P85100 whole entry partner) above
Sequence of bovine skinned cardiac myofibrils (myosin) (Q3SZE5 whole entry partner): as the sequence (Q3SZE5 whole entry partner) above

SMILES: Cc1cccc([C@H](C)Nc2nc(=O)n(C3CCOCC3)c(=O)[nH]2)c1 [Example 4]
Ratio of % FS 5 uM/10 uM ([1]; 5 uM versus 10 uM (cell marked *)): 1.7*
% FS (% reduction from baseline) at 5 uM [1, 5]: 71.2 +/− 7.6%
% FS (% reduction from baseline) at 10 uM ([1]; 10 uM (cell marked *), rat ventricular myocytes, paced at 1 Hz): 42.4 +/− 4.2* %
IC50 [2]: 660 nM
DNAUC [3]: 2299.6 ng·h/mL
clearance [3]: 5.5 mL/min/kg
half-life [3]: 201 min
Vd [3]: 1.17 L/kg

SMILES: CC(C)n1c(=O)nc(N[C@@H](C)C2CCCCC2)[nH]c1=O [Example 45]
Skeleta/Cardiac [4]: 5.36
IC50 [2]: 7580 nM
IC50 (bovine cardiac myosin): 2800 nM

SMILES: C[C@H](Nc1nc(=O)n(C2CCOCC2)c(=O)[nH]1)c1ccc(OC(F)(F)F)cc1 [Example 152]
Ratio of % FS 5 uM/15 uM [1]: 2.4
% FS (% reduction from baseline) at 5 uM [1, 5]: 62.9 +/− 6.2%
% FS (% reduction from baseline) at 15uM [1, 5]: 26.7 +/− 6.4%
Skeleta/Cardiac [4]: 2.39
IC50 [2]: 1790 nM
IC50 (bovine cardiac myosin): 1210 nM

SMILES: Cc1cc([C@H](C)Nc2nc(=O)n(C3CCOCC3)c(=O)[nH]2)ccc1F [Example 156]
Ratio of % FS 5 uM/15 uM [1]: 2.4
% FS (% reduction from baseline) at 5 uM [1, 5]: 61.5 +/− 5.2%
% FS (% reduction from baseline) at 15uM [1, 5]: 26.1 +/− 4%
IC50 (bovine cardiac myosin): 1130 nM
DNAUC [3]: 5052.2 ng·h/mL
clearance [3]: 3.17 mL/min/kg
half-life [3]: 328 min
Vd [3]: 0.97 L/kg

SMILES: C[C@H](Nc1nc(=O)n(C2CCOCC2)c(=O)[nH]1)c1ccc(F)cc1Cl [Example 162]
Ratio of % FS 5 uM/15 uM [1]: 1.9
% FS (% reduction from baseline) at 5 uM [1, 5]: 60.8 +/− 12.7%
% FS (% reduction from baseline) at 15uM [1, 5]: 32.2 +/− 5.3%
DNAUC [3]: 4195.1 ng·h/mL
clearance [3]: 4.17 mL/min/kg
half-life [3]: 224 min
Vd [3]: 0.97 L/kg

SMILES: C[C@H](Nc1nc(=O)n(C2CCOCC2)c(=O)[nH]1)c1ccc(Cl)c(Cl)c1 [Example 165]
IC50 (bovine cardiac myosin): 200 nM
DNAUC [3]: 11463.4 ng·h/mL
clearance [3]: 1.67 mL/min/kg
half-life [3]: 275 min
Vd [3]: 0.46 L/kg

SMILES: Cc1ccc([C@H](C)Nc2nc(=O)n(C3CCOCC3)c(=O)[nH]2)c(C)c1 [Example 168]
Ratio of % FS 5 uM/15 uM [1]: 2.2
% FS (% reduction from baseline) at 5 uM [1, 5]: 54.3 +/− 9.3%
% FS (% reduction from baseline) at 15uM [1, 5]: 24.3 +/− 8.5%
IC50 (bovine cardiac myosin): 1700 nM
DNAUC [3]: 13412.2 ng·h/mL
clearance [3]: 1.33 mL/min/kg
half-life [3]: 233 min
Vd [3]: 0.32 L/kg

SMILES: C[C@H](Nc1nc(=O)n(C2CCOCC2)c(=O)[nH]1)c1cc(F)cc(Cl)c1 [Example 172]
Ratio of % FS 5 uM/15 uM [1]: 2.2
% FS (% reduction from baseline) at 5 uM [1, 5]: 63.6 +/− 3.3%
% FS (% reduction from baseline) at 15uM [1, 5]: 28.9 +/− 8.7%
IC50 (bovine cardiac myosin): 470 nM
DNAUC [3]: 7631.0 ng·h/mL
clearance [3]: 2.5 mL/min/kg
half-life [3]: 237 min
Vd [3]: 0.57 L/kg

SMILES: C[C@H](Nc1nc(=O)n(C2CCOCC2)c(=O)[nH]1)c1cccc(C(F)(F)F)c1 [Example 252]
IC50 (bovine cardiac myosin): 6890 nM
DNAUC [3]: 3959.8 ng·h/mL
clearance [3]: 3.5 mL/min/kg
half-life [3]: 265 min
Vd [3]: 0.94 L/kg

SMILES: CC(C)n1c(=O)nc(N[C@@H](C)c2ccc(Cl)c(Cl)c2)[nH]c1=O [Example 325]
IC50 (bovine cardiac myosin): 1170 nM

SMILES: COc1cccc([C@H](C)Nc2nc(=O)n(C3CCOCC3)c(=O)[nH]2)c1 [Example 326]
IC50 (bovine cardiac myosin): 1350 nM

SMILES: C[C@H](Nc1nc(=O)n(C2CCOCC2)c(=O)[nH]1)c1cccc(C#N)c1 [Example 327]
IC50 (bovine cardiac myosin): 1270 nM

SMILES: CC(C)c1ccc([C@H](C)Nc2nc(=O)n(C3CCOCC3)c(=O)[nH]2)cc1 [Example 328]
IC50 (bovine cardiac myosin): 850 nM

SMILES: CC(=O)N1CCC(c2cccc([C@H](C)Nc3nc(=O)n(C4CCOCC4)c(=O)[nH]3)c2)CC1 [Example 329]
IC50 (bovine cardiac myosin): 1240 nM

SMILES: Cc1cc([C@H](C)Nc2nc(=O)n(C3CCOCC3)c(=O)[nH]2)ccc1Cl [Example 330]
IC50 (bovine cardiac myosin): 1080 nM

SMILES: C[C@H](Nc1nc(=O)n(C2CCOCC2)c(=O)[nH]1)c1cccc(C2=CCCCC2)c1 [Example 331]
IC50 (bovine cardiac myosin): 1110 nM

SMILES: C[C@H](Nc1nc(=O)n([C@@H](C)C(F)(F)F)c(=O)[nH]1)c1cccc(C(F)(F)F)c1 [Example 332]
IC50 (bovine cardiac myosin): 1390 nM

SMILES: CC(C)[C@H](O)c1cccc([C@H](C)Nc2nc(=O)n(C3CCOCC3)c(=O)[nH]2)c1 [Example 345]
IC50 (bovine cardiac myosin): 790 nM

Now from value to compound:

IC50 (bovine cardiac myosin): 1030 nM
SMILES: C[C@@H](Nc1nc(=O)n(C2CCOCC2)c(=O)[nH]1)c1ccc(C(F)(F)F)cc1 [Example 333]

IC50 (bovine cardiac myosin): 700 nM
SMILES: C[C@@H](Nc1nc(=O)n(C2CCOCC2)c(=O)[nH]1)c1ccc(C2CC2)cc1 [Example 334]

IC50 (bovine cardiac myosin): 620 nM
SMILES: Cc1cccc([C@@H](Nc2nc(=O)n(C3CCOCC3)c(=O)[nH]2)C2CC2)c1 [Example 335]

IC50 (bovine cardiac myosin): 1160 nM
SMILES: C[C@H](Nc1nc(=O)n(C2CCOCC2)c(=O)[nH]1)c1cccc(C2CN(C(=O)OC(C)(C)C)C2)c1 [Example 336]

IC50 (bovine cardiac myosin): 2070 nM
SMILES: CC(C)n1c(=O)nc(N[C@@H](C)c2cccc([C@H](C)O)c2)[nH]c1=O [Example 342]

IC50 (bovine cardiac myosin): 1510 nM
SMILES: CC(C)n1c(=O)nc(N[C@@H](C)c2cccc([C@H](C)O)c2)[nH]c1=O [Example 343]

IC50 (bovine cardiac myosin): 550 nM
SMILES: C[C@H](O)c1cccc([C@H](C)Nc2nc(=O)n(C3CCOCC3)c(=O)[nH]2)c1 [Example 344]

IC50 (bovine cardiac myosin): 2580 nM
SMILES: C[C@H](Nc1nc(=O)n(C2CCOCC2)c(=O)[nH]1)c1cccc([C@@H](O)C(F)(F)F)c1 [Example 346]

IC50 (bovine cardiac myosin): 2330 nM
SMILES: CO[C@H]1COCC[C@@H]1n1c(=O)nc(N[C@@H](C)c2cccc(C)c2)[nH]c1=O [Example 347]

IC50 (bovine cardiac myosin): 2450 nM
SMILES: C[C@H](Nc1nc(=O)n(C2CCOCC2)c(=O)[nH]1)c1cccc(C(O)C(F)(F)F)c1 (some centres unmarked) [Example 348]
